The source made the active and inactive calls. How the calls were made is not given here.
Biological target: Hexokinase-1 (Homo sapiens) (UniProt P19367)
Test: HK1 enzyme inhibitors – biochemical, selectivity assay for HKDC1 inhibitor project, dose response (AID 504763)
Conditions: biochemical inhibition

Chain of Hexokinase-1 (Homo sapiens) (P19367 whole entry, looked up): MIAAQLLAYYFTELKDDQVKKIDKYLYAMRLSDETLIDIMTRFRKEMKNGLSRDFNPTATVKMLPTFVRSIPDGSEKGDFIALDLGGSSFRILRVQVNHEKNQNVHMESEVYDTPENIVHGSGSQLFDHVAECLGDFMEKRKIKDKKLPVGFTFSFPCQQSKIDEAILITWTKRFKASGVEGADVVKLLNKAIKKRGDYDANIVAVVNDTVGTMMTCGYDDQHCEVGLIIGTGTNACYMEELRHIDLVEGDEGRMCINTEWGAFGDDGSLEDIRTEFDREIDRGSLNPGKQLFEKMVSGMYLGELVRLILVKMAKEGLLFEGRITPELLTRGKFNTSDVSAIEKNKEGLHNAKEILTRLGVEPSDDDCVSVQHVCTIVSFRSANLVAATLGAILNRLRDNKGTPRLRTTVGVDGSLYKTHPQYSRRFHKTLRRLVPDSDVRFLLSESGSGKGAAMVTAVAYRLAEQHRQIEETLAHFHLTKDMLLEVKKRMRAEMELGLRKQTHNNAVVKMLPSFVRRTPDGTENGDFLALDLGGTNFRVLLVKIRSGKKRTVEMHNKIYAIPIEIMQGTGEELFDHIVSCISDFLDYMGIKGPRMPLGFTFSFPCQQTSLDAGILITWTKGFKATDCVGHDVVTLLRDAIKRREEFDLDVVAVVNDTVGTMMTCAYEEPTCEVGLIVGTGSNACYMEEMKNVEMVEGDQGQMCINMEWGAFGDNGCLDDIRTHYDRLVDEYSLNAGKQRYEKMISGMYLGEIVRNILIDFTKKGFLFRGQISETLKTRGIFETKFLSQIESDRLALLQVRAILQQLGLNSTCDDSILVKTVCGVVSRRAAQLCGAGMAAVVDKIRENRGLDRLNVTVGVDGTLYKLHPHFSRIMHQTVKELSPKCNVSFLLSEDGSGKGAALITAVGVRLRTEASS

| SMILES | IC50 |
| --- | --- |
| CCCc1nc2c(c(=O)c3ccccc3n2C)c(=O)n1-c1ccc(F)cc1 | 6.47 µM |
| COCC(=O)OC1CCn2c1nc1c2C(=O)C(C)=C(NC(C)=O)C1=O (stereo not given) | 2.15 µM |
| CC1COCC(C)N1C1=C(Cl)C(=O)c2ccccc2C1=O (stereo not given) | > 80 µM (inactive) |
| Cc1cccc(C)c1Nc1nnc(SCc2cn3cccc(C)c3n2)s1 | > 80 µM (inactive) |
| C=CCn1c(SCC(=O)Nc2sc3c(c2C#N)CCC(C)C3)nc2cc(C(=O)O)ccc2c1=O (stereo not given) | > 80 µM (inactive) |
| Cc1nc2c(O)c3c(c(O)c2nc1C)C1C=CC3CC1 | 2.08 µM |
| N#C/C(=C(/O)CCl)c1nc2c(s1)CCc1ccccc1-2 | inactive |
| O=C1C(Cl)=C(NCCc2ccccc2)C(=O)c2ccccc21 | 18.5 µM |

Other lines, results leading:

| IC50 | SMILES |
| --- | --- |
| > 80 µM (inactive) | Cc1ccc(N=Cc2cc(Cc3ccccc3Cl)cc([N+](=O)[O-])c2O)c(O)c1 |
| > 80 µM (inactive) | O=[N+]([O-])c1ccc(NN=Cc2ccc(O)cc2O)nc1 |
| > 80 µM (inactive) | COc1ccc(CN2C(=O)c3cccnc3C2O)cc1 (stereo not given) |
| 5.54 µM | O=C(NCCc1ccccc1)c1cnn2c(C(F)F)cc(C3CC3)nc12 |
| > 80 µM (inactive) | COC1(NS(=O)(=O)c2ccc(Br)cc2)C(C)=CC(=O)C=C1C |
| > 80 µM (inactive) | Cc1ccc(NC2c3ncccc3C(=O)N2c2ccccc2C)cc1C (stereo not given) |
| inactive | Cc1cccc2c(N=NC(=O)c3ccc(NS(=O)(=O)c4cccs4)cc3)c(O)[nH]c12 |
| 18 µM | COc1cc(/C=C(\C#N)c2nc3ccc(C)cc3[nH]2)cc([N+](=O)[O-])c1O |
| > 80 µM (inactive) | O=C(CNC(=O)/C=C/c1ccco1)N=Nc1c(O)[nH]c2ccccc12 |
| inactive | CC(NC1=CC(=O)c2cccnc2C1=O)C(O)c1ccccc1 (stereo not given) |
| > 80 µM (inactive) | COCc1cc(C2C(C(=O)c3ccco3)=C(O)C(=O)N2CCOCCO)ccc1O (stereo not given) |
| > 80 µM (inactive) | Oc1ccc(/C=N/Nc2ncc(Br)cn2)c(O)c1 |
